Assay: Critical micelle concentration (CMC) by Wilhelmy plate method, K100C Force Tensiometer
Assay type: physicochemical
Conditions: pH 3; for CMC: critical micelle concentration of the protonated or cationic form, Wilhelmy plate method
Protocol: As a parameter for the surfactant properties of the novel amine-N-oxide compounds, as usual, the critical micelle concentration (CMC), i.e. the concentration of the protonated or cationic form of the surfactants at which micelles can form was used and was determined using a K100C Force Tensiometer from Krüss Scientific according to the Wilhelmy plate method at 25° C. and pH 3. For comparison, dodecyldimethylamine N-oxide (“C1”) was measured under the same conditions.

| Compound | CMC value (25° C.) | CMC (25° C.) | CMC, value marked (3)* (second value of the cell, for (3)*, asterisk not explained, otherwise 25° C.) |
| --- | --- | --- | --- |
| CCCCCCCCOc1c(C[N+](C)(C)[O-])cc(CC)cc1OC [Compound 1, N,N-dimethyl-1-(5-ethyl-3-methoxy-2-octyloxyphenyl)methanamine N-oxide] | 4.1 mM | 4.1 mmol/L | – |
| CCCCCCCCCCOc1c(C[N+](C)(C)[O-])cc(CC)cc1OC [Compound 2, N,N-dimethyl-1-(2-decyloxy-5-ethyl-3-methoxyphenyl)methanamine N-oxide] | – | 570 mmol/L | – |
| CCCCCCCCCCCCOc1c(C[N+](C)(C)[O-])cc(CC)cc1OC [Compound 3, N,N-dimethyl-1-(2-dodecyloxy-5-ethyl-3-methoxyphenyl)methanamine N-oxide] | – | 89 mmol/L | 19 mmol/L |
| CCCCCCCCCCCCCCOc1c(C[N+](C)(C)[O-])cc(CC)cc1OC [Compound 4, N,N-dimethyl-1-(5-ethyl-3-methoxy-2-tetradecyloxyphenyl)methanamine N-oxide] | – | 5.2 mmol/L | – |
| CCCCCCCCCCCCCCCCOc1c(C[N+](C)(C)[O-])cc(CC)cc1OC [Compound 5, N,N-dimethyl-1-(5-ethyl-2-hexadecyloxy-3-methoxyphenyl)methanamine N-oxide] | – | 4.0 mmol/L | – |
| CCCCCCCCCCCCCCCCCCOc1c(C[N+](C)(C)[O-])cc(CC)cc1OC [Compound 6, N,N-dimethyl-1-(5-ethyl-3-methoxy-2-octadecyloxyphenyl)methanamine N-oxide] | – | 1.3 mmol/L | – |
| CCCCCCCCCCCCOc1c(C[N+]2([O-])CCCC2)cc(CC)cc1OC [Compound 7, 1-(2-dodecyloxy-5-ethyl-3-methoxybenzyl)pyrrolidine-1-oxide] | – | 36 mmol/L | – |
| CCCCCCCCCCCCOc1c(C[N+]2([O-])CCCCC2)cc(CC)cc1OC [Compound 8, 1-(2-dodecyloxy-5-ethyl-3-methoxybenzyl)piperidine-1-oxide] | – | 130 mmol/L | – |
| CCCCCCCCCCCCOc1c(C[N+](C)(C)[O-])cc(CC)cc1C[N+](C)(C)[O-] [Compound 13, 1,1′-(2-dodecyloxy-5-ethyl-1,3-phenylene)-bis(N,N-dimethylmethanamine N-oxide)] | – | 190 mmol/L | – |
| CCCCCCCCCCCCCCCCOc1c(C[N+](C)(C)[O-])cc(CC)cc1C[N+](C)(C)[O-] [Compound 14, 1,1′-(5-ethyl-2-hexadecyloxy-1,3-phenylene)-bis(N,N-dimethylmethanamine N-oxide)] | – | 75 mmol/L | – |
| CCCCCCCCCCCCCCCCCCOc1c(C[N+](C)(C)[O-])cc(CC)cc1C[N+](C)(C)[O-] [Compound 15, 1,1′-(5-ethyl-2-octadecyloxy-1,3-phenylene)-bis(N,N-dimethylmethanamine N-oxide)] | – | 29 mmol/L | – |
| CCCCCCCCCCCC[N+](C)(C)[O-] [Compound C1, dodecyldimethylamine N-oxide, reference compound] | – | 4200 mmol/L | – |

Reference: patent publication US20240383840A1, “AMINE-N-OXIDE COMPOUNDS” (Karl Franzens Universität Graz, priority 2021, published 2024)
